The results in this text go back to patent US9512315B2, “Quenching dye for labeling biomolecules and method for preparing the same” (DKC CORPORATION, priority 2013, dated 2016).

Assay type in all cases: physicochemical
Data set [1] is described as follows: Test Example 1: comparison of absorption spectra. The settings on record: for negative absorption: FIG. 1, range of 750-800 nm. Here is the method:
(§1) LC/MS was measured by ESI (electrospray ionization) using the LC/MSD SL of Agilent Technologies. The absorption spectrum and maximum absorption wavelength (λabs) of the synthesized dye were measured with Lambda 45 of PerkinElmer. The emission spectrum and maximum emission wavelength (λfl) were measured with LS-55 of PerkinElmer.
(§2) In order to investigate the absorption intensity and spectrum of the anthraquinone compound according to the present disclosure, the absorption spectra of the compounds of Example 1 and Example 6 and commercially available BHQ-3 as a comparative example were compared. Stock solutions were prepared by dissolving the compounds of Example 1 and Example 6 according to the present disclosure in distilled water. BHQ-3 was dissolved in a small amount of DMSO according to the manufacturer's instructions and diluted with distilled water.

A short description of data set [2]: Solubility in water (stock solution preparation). On the procedure: as §2
The nature of data set [3]: Maximum absorption wavelength (λabs) of the synthesized dye in PBS. Here is the method:
as §1

SMILES strings stand for the structures. Where “and” joins values, the source holds several entries; their conditions need not be identical. Equal entries are not always repeated.

As for `CCN(CC)c1ccc2nc3ccc(/N=N/c4ccc(N(C)CCCC(=O)O)cc4)cc3[n+](-c3ccccc3)c2c1` [BHQ-3, reference compound], the negative absorption result in data set [1] is “negative (−) absorption”. For the same compound, the “range of absorption spectra, normalized to the maximum absorption intensity” value in data set [1] (FIG. 2) is 300-750 nm. Also, the solubility in water entry in data set [2] is reported as “not dissolved in water”.
For the compound `CN(CCCCCC(=O)O)c1ccc(/N=N/c2ccc(Nc3cc(S(=O)(=O)O)c(N)c4c3C(=O)c3ccccc3C4=O)c(S(=O)(=O)O)c2)cc1` [Example 1], in data set [3], the “λabs (maximum absorption wavelength)” value is 481 nm and 626 nm. Moreover, the negative absorption result in data set [1] is reported as “did not show negative absorption”.
On to `C=CS(=O)(=O)CCNC(=O)CCCCCN(C)c1ccc(/N=N/c2ccc(Nc3cc(S(=O)(=O)O)c(N)c4c3C(=O)c3ccccc3C4=O)c(S(=O)(=O)O)c2)cc1` [Example 3], for which the “λabs (maximum absorption wavelength)” value in data set [3] was 481 nm and 626 nm.
On the same count and under the same terms, under `C=CS(=O)(=O)CCNC(=O)CCCCCCCN(C)c1ccc(/N=N/c2ccc(Nc3cc(S(=O)(=O)O)c(N)c4c3C(=O)c3ccccc3C4=O)c(S(=O)(=O)O)c2)cc1` [Example 7] stands 472 nm and 624 nm.
Turning to `CN(CCCCCCCC(=O)ON1C(=O)CCC1=O)c1ccc(/N=N/c2ccc(Nc3cc(S(=O)(=O)O)c(N)c4c3C(=O)c3ccccc3C4=O)c(S(=O)(=O)O)c2)cc1` [Example 6], the negative absorption entry in data set [1] is given as “did not show negative absorption”.
Consider `CN(CCCCCCCC(=O)O)c1ccc(/N=N/c2ccc(Nc3cc(S(=O)(=O)O)c(N)c4c3C(=O)c3ccccc3C4=O)c(S(=O)(=O)O)c2)cc1` [Example 5], for which the “λabs (maximum absorption wavelength)” value in data set [3] was 472 nm and 624 nm.
